Laboratory results taken from patent publication US20230265151A1, “GIP/GLP1 CO-AGONIST COMPOUNDS” (priority 2020, published 2023).
Like-named read-outs stand apart in the source and are kept apart here.

Legend:
Assay type in all cases: cell-based
hGIPR = target: T1, hGIPR (Homo sapiens, UniProt P48546); test: Functional cAMP formation (HTRF) in HEK-293 clonal cells expressing hGIPR, 0.1% bovine casein, without or with 1.0% human serum albumin; conditions: for Emax: read-out: hGIPR Emax, % ± SEM; for EC50: geometric mean, read-out: hGIPR EC50, nM (SEM, n)
T1 construct: expressed in transfected cells
T1 sequence (P48546 22-466): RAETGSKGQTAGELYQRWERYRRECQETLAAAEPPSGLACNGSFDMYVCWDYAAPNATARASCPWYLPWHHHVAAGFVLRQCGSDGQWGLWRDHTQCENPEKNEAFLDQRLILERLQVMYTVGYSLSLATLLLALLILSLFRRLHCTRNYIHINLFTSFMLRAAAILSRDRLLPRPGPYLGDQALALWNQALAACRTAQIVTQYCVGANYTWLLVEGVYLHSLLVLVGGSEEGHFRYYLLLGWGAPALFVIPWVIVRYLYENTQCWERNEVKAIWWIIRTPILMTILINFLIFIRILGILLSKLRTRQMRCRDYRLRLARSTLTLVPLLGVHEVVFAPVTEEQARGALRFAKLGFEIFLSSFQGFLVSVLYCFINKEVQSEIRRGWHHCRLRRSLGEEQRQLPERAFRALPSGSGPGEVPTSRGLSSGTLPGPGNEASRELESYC
Procedure, shortened: (§1)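 Readings of the HTRF 665/620 nm ratio, which falls as cAMP rises, were converted to nM cAMP using a standard curve after 30 min peptide exposure at 37° C.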

hGCGR = target: T2, hGCGR (Homo sapiens, UniProt P47871); test: Functional cAMP formation (HTRF) in HEK-293 clonal cells expressing hGCGR, 0.1% bovine casein, without or with 1.0% human serum albumin; conditions: read-out: hGCGR EC50, nM (SEM, n)
T2 construct: expressed in transfected cells
Procedure, shortened: as §1

hGLP-1R = hGLP-1R (Homo sapiens, UniProt P43220); test: Functional cAMP formation (HTRF) in HEK-293 clonal cells expressing hGLP-1R, 0.1% bovine casein, without or with 1.0% human serum albumin; set-up: expressed in transfected cells; conditions: for Emax: read-out: hGLP-1R Emax, % ± SEM; for EC50: geometric mean, read-out: hGLP-1R EC50, nM (SEM, n)
Procedure, shortened: as §1

[1] = cAMP, incubated at 37° C., 0.1% bovine casein (no human serum albumin)
[2] = cAMP, incubated at 37° C., 0.1% bovine casein (no human serum albumin), geometric mean
[3] = HEK293, percent of maximal response to GLP-1(7-36)NH2, 37° C., 0.1% bovine casein, arithmetic mean
[4] = HEK293, 0.1% bovine casein and 1.0% human serum albumin, 37° C., percent of maximal response to GIP(1-42)NH2
[5] = HEK293, cAMP, 37° C., 0.1% bovine casein, percent of maximal response to GIP(1-42)NH2, arithmetic mean
[6] = cAMP, 37° C., 0.1% bovine casein (no human serum albumin)
[7] = 0.1% bovine casein and 1.0% human serum albumin, 37° C., geometric mean
[8] = cAMP, 37° C., 0.1% bovine casein (no human serum albumin), geometric mean
[9] = 0.1% bovine casein and 1.0% human serum albumin, 37° C.

T2 sequence (P47871 26-477): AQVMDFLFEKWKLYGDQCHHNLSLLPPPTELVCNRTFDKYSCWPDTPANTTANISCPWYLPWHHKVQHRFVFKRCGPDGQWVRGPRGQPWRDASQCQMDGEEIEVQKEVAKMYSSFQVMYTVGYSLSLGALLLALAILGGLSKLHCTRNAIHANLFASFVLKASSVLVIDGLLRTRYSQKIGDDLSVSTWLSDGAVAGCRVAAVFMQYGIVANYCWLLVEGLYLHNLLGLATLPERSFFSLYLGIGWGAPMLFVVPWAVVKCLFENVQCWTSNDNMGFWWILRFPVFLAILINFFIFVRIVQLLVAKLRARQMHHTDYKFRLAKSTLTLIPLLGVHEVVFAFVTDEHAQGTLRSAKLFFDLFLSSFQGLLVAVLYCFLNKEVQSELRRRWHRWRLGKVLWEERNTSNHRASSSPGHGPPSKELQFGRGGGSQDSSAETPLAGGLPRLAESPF
Chain of hGLP-1R (P43220 24-463): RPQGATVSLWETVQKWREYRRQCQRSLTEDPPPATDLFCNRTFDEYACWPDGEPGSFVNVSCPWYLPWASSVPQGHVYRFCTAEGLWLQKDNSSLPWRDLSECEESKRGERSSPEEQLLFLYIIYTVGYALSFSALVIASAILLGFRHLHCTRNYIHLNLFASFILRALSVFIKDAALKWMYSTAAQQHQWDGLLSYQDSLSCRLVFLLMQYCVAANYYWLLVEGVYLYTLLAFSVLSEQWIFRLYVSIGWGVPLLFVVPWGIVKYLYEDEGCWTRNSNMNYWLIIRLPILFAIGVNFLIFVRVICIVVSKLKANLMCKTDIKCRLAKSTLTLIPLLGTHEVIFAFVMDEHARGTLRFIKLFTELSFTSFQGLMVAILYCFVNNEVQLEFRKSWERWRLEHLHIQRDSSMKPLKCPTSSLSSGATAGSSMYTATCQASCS

CC[C@H](C)[C@H](NC(=O)[C@H](CC(C)C)NC(=O)[C@](C)(Cc1ccc(O)cc1)NC(=O)[C@@H](CCC(=O)O)NC(=O)[C@@H](NC(=O)[C@H](Cc1ccccc1)NC(=O)[C@H](CCC(=O)O)NC(=O)C(C)(C)NC(=O)[C@H](CCC(N)=O)NC(=O)[C@H](C)NC(=O)[C@H](CCCCNC(=O)COCCOCCNC(=O)COCCOCCNC(=O)CC[C@H](NC(=O)CCCCCCCCCCCCC(=O)O)C(=O)O)NC(=O)[C@H](CCCN)NC(=O)[C@H](CC(=O)O)NC(=O)[C@H](CC(C)C)NC(=O)[C@](C)(CC(C)C)NC(=O)[C@@H](NC(=O)[C@H](CO)NC(=O)[C@H](Cc1cccs1)NC(=O)[C@H](CC(=O)O)NC(=O)[C@H](CO)NC(=O)[C@@H](NC(=O)[C@](C)(Cc1ccccc1F)NC(=O)[C@@H](NC(=O)CNC(=O)[C@H](CCC(=O)O)NC(=O)C(C)(C)NC(=O)[C@@H](N)Cc1ccc(O)cc1)[C@@H](C)O)[C@@H](C)O)[C@@H](C)CC)[C@@H](C)CC)C(=O)N[C@@H](CCC(=O)O)C(=O)NCC(=O)NCC(=O)N[C@@H](CCCCNC(=O)COCCOCCNC(=O)COCCOCCNC(=O)CC[C@H](NC(=O)CCCCCCCCCCCCC(=O)O)C(=O)O)C(=O)N[C@@H](CO)C(=O)N[C@@H](CO)C(=O)NCC(=O)N[C@@H](C)C(=O)N1CCC[C@H]1C(=O)N1CCC[C@H]1C(=O)N1CCC[C@H]1C(=O)N[C@@H](CO)C(N)=O [Example 145] was tested, and the Emax (hGIPR; HEK293, percent of maximal response to GIP(1-42)NH2, 37° C., 0.1% bovine casein, arithmetic mean) was 74.8%, the EC50 (hGIPR; [1]) was 0.0286 nM and the EC50 (hGCGR; [2]) was over 9950 nM. It also gave an Emax (hGLP-1R; [3]) of 95.1% and an EC50 (hGLP-1R; [1]) of 0.555 nM.
In the case of CCCCCCCCCCCC(=O)N[C@@H](CCC(=O)NCCOCCOCC(=O)NCCOCCOCC(=O)NCCCC[C@H](NC(=O)[C@H](CCCN)NC(=O)[C@H](CC(=O)O)NC(=O)[C@H](CC(C)C)NC(=O)[C@](C)(CC(C)C)NC(=O)[C@@H](NC(=O)C(C)(C)NC(=O)[C@H](Cc1ccc(O)cc1)NC(=O)[C@H](CC(=O)O)NC(=O)[C@H](CO)NC(=O)[C@@H](NC(=O)[C@](C)(Cc1ccccc1F)NC(=O)[C@@H](NC(=O)CNC(=O)[C@H](CCC(=O)O)NC(=O)C(C)(C)NC(=O)[C@@H](N)Cc1ccc(O)cc1)[C@@H](C)O)[C@@H](C)O)[C@@H](C)CC)C(=O)N[C@@H](C)C(=O)N[C@@H](CCC(N)=O)C(=O)NC(C)(C)C(=O)N[C@@H](CCC(=O)O)C(=O)N[C@@H](Cc1ccccc1)C(=O)N[C@H](C(=O)N[C@H](CCC(=O)O)C(=O)N[C@@](C)(Cc1ccc(O)cc1)C(=O)N[C@@H](CC(C)C)C(=O)N[C@H](C(=O)N[C@@H](CCCCNC(=O)COCCOCCNC(=O)COCCOCCNC(=O)CC[C@H](NC(=O)CCCCCCCCCCC)C(=O)O)C(=O)NCC(=O)NCC(=O)N1CCC[C@H]1C(=O)N[C@@H](CO)C(=O)N[C@@H](CO)C(=O)NCC(=O)N[C@@H](C)C(=O)N1CCC[C@H]1C(=O)N1CCC[C@H]1C(=O)N1CCC[C@H]1C(=O)N[C@@H](CO)C(N)=O)[C@@H](C)CC)[C@@H](C)CC)C(=O)O [Example 301], the Emax (hGIPR; [4]) is reported as 85.5%, the Emax (hGIPR; [5]) is reported as 97.4% and the EC50 (hGIPR; [6]) is reported as 0.0128 nM. It also gave an EC50 (hGCGR; [7]) of over 9950 nM, an EC50 (hGCGR; [8]) of over 9950 nM and an EC50 (hGLP-1R; [6]) of 0.175 nM.
For CC[C@H](C)[C@H](NC(=O)[C@H](CC(C)C)NC(=O)[C@](C)(Cc1ccc(O)cc1)NC(=O)[C@@H](CCC(=O)O)NC(=O)[C@@H](NC(=O)[C@H](Cc1ccccc1)NC(=O)[C@H](CCC(=O)O)NC(=O)C(C)(C)NC(=O)[C@H](CCC(N)=O)NC(=O)[C@H](C)NC(=O)[C@H](CCCCNC(=O)COCCOCCNC(=O)CC[C@H](NC(=O)CCCc1ccc(C(C)(C)C)cc1)C(=O)O)NC(=O)[C@H](CCCN)NC(=O)[C@H](CC(=O)O)NC(=O)[C@H](CC(C)C)NC(=O)[C@](C)(CC(C)C)NC(=O)[C@@H](NC(=O)[C@H](CO)NC(=O)[C@H](Cc1ccncc1)NC(=O)[C@H](CC(=O)O)NC(=O)[C@H](CO)NC(=O)[C@@H](NC(=O)[C@](C)(Cc1ccccc1F)NC(=O)[C@@H](NC(=O)CNC(=O)[C@H](CCC(=O)O)NC(=O)C(C)(C)NC(=O)[C@@H](N)Cc1ccc(O)cc1)[C@@H](C)O)[C@@H](C)O)[C@@H](C)CC)[C@@H](C)CC)C(=O)N[C@@H](CCC(=O)O)C(=O)NCC(=O)NCC(=O)N1CCC[C@H]1C(=O)N[C@@H](CO)C(=O)N[C@@H](CO)C(=O)NCC(=O)N[C@@H](C)C(=O)N1CCC[C@H]1C(=O)N1CCC[C@H]1C(=O)N1CCC[C@H]1C(=O)N[C@@H](CO)C(=O)N[C@@H](CCCCNC(=O)COCCOCCNC(=O)CC[C@H](NC(=O)CCCc1ccc(C(C)(C)C)cc1)C(=O)O)C(N)=O [Example 209], the EC50 (hGIPR; [9]) was 0.173 nM, the Emax (hGIPR; [4]) was 90.8% and the EC50 (hGIPR; [1]) was 0.0133 nM. For the same compound, the EC50 (hGCGR; [7]) was over 9950 nM, the EC50 (hGCGR; [2]) was over 9950 nM and the EC50 (hGLP-1R; [9]) was 1.16 nM. It also gave an Emax (hGLP-1R; HEK293, 0.1% bovine casein and 1.0% human serum albumin, 37° C., percent of maximal response to GLP-1(7-36)NH2) of 109%, an Emax (hGLP-1R; [3]) of 100% and an EC50 (hGLP-1R; [1]) of 0.235 nM.
In the case of CC[C@H](C)[C@H](NC(=O)[C@H](CC(C)C)NC(=O)[C@](C)(Cc1ccc(O)cc1)NC(=O)[C@@H](CCC(=O)O)NC(=O)[C@@H](NC(=O)[C@H](Cc1ccccc1)NC(=O)[C@H](CCC(=O)O)NC(=O)C(C)(C)NC(=O)[C@H](CCC(N)=O)NC(=O)[C@H](C)NC(=O)[C@H](CCCCNC(=O)COCCOCCNC(=O)CC[C@H](NC(=O)CCCCCCCCCCCCC(=O)O)C(=O)O)NC(=O)[C@H](CCCN)NC(=O)[C@H](CC(=O)O)NC(=O)[C@H](CC(C)C)NC(=O)[C@](C)(CC(C)C)NC(=O)[C@@H](NC(=O)C(C)(C)NC(=O)[C@H](Cc1ccc(O)cc1)NC(=O)[C@H](CC(=O)O)NC(=O)[C@H](CO)NC(=O)[C@@H](NC(=O)[C@](C)(Cc1ccccc1F)NC(=O)[C@@H](NC(=O)CNC(=O)[C@H](CCC(=O)O)NC(=O)C(C)(C)NC(=O)[C@@H](N)Cc1ccc(O)cc1)[C@@H](C)O)[C@@H](C)O)[C@@H](C)CC)[C@@H](C)CC)C(=O)N[C@@H](CCCCNC(=O)COCCOCCNC(=O)CC[C@H](NC(=O)CCCCCCCCCCCCC(=O)O)C(=O)O)C(=O)NCC(=O)NCC(=O)N1CCC[C@H]1C(=O)N[C@@H](CO)C(=O)N[C@@H](CO)C(=O)NCC(=O)N[C@@H](C)C(=O)N1CCC[C@H]1C(=O)N1CCC[C@H]1C(=O)N1CCC[C@H]1C(=O)N[C@@H](CO)C(N)=O [Example 367], the Emax (hGIPR; [5]) is reported as 112%, the EC50 (hGIPR; [6]) is reported as 0.019 nM and the EC50 (hGCGR; [8]) is reported as over 9950 nM. The Emax (hGLP-1R; HEK293, cAMP, 37° C., 0.1% bovine casein, percent of maximal response to GLP-1(7-36)NH2, arithmetic mean) was 93.9% and the EC50 (hGLP-1R; [6]) was 0.366 nM.
In the case of CCCCCCCCCCCC(=O)N[C@@H](CCC(=O)NCCOCCOCC(=O)NCCCC[C@H](NC(=O)[C@H](CCCN)NC(=O)[C@H](CC(=O)O)NC(=O)[C@H](CC(C)C)NC(=O)[C@](C)(CC(C)C)NC(=O)[C@@H](NC(=O)C(C)(C)NC(=O)[C@H](CCCCNC(=O)COCCOCCNC(=O)CC[C@H](NC(=O)CCCCCCCCCCC)C(=O)O)NC(=O)[C@H](CC(=O)O)NC(=O)[C@H](CO)NC(=O)[C@@H](NC(=O)[C@](C)(Cc1ccccc1F)NC(=O)[C@@H](NC(=O)CNC(=O)[C@H](CCC(=O)O)NC(=O)C(C)(C)NC(=O)[C@@H](N)Cc1ccc(O)cc1)[C@@H](C)O)[C@@H](C)O)[C@@H](C)CC)C(=O)N[C@@H](C)C(=O)N[C@@H](CCC(N)=O)C(=O)NC(C)(C)C(=O)N[C@@H](CCC(=O)O)C(=O)N[C@@H](Cc1ccccc1)C(=O)N[C@H](C(=O)N[C@H](CCC(=O)O)C(=O)N[C@@](C)(Cc1ccc(O)cc1)C(=O)N[C@@H](CC(C)C)C(=O)N[C@H](C(=O)N[C@@H](CCC(=O)O)C(=O)NCC(=O)NCC(=O)N1CCC[C@H]1C(=O)N[C@@H](CO)C(=O)N[C@@H](CO)C(=O)NCC(=O)N[C@@H](C)C(=O)N1CCC[C@H]1C(=O)N1CCC[C@H]1C(=O)N1CCC[C@H]1C(=O)N[C@@H](CO)C(N)=O)[C@@H](C)CC)[C@@H](C)CC)C(=O)O [Example 425], the Emax (hGIPR; HEK293, cAMP, 37° C., 0.1% bovine casein and 1.0% human serum albumin, percent of maximal response to GIP(1-42)NH2) is reported as 89.9%, the Emax (hGIPR; [5]) is reported as 97.6% and the EC50 (hGIPR; [6]) is reported as 0.00943 nM. For the same compound, the EC50 (hGCGR; [8]) was over 9950 nM, the EC50 (hGCGR; cAMP, 37° C., 0.1% bovine casein and 1.0% human serum albumin, geometric mean (SEM, n)) was over 9950 nM and the EC50 (hGLP-1R; [6]) was 0.0965 nM.
